Assay results: PubChem BioAssay AID2060499 (Molecular Pharmacology Branch, DTP, NCI, 2025)

System: 777334-354-R2-J4-PDC tumor spheroids with HUVEC/MSC, viability
Assay: Anticancer human tumor 777334-354-R2-J4-PDC patient-derived pancreatic adenocarcinoma cell line growth inhibition [GQUAD]
Conditions: for IC50: curve of first compound; for viability, T/C: stronger effect = lower value
Summary of the method: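 Viability of tumor cells grown as complex spheroids with endothelial and stromal cells, exposed to drug combinations. Top concentration at or near clinical Cmax (else 10 microM), diluted in half-log increments.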

[1] = second compound 0.0316 µM, first compound 0.0316 µM
[2] = second compound 0.0316 µM, first compound 0.1 µM
[3] = second compound 0.0316 µM, first compound 0.316 µM
[4] = second compound 0.0316 µM, first compound 1 µM
[5] = second compound 0.0316 µM, first compound 3.16 µM
[6] = second compound 0.0316 µM, first compound 10 µM
[7] = second compound 0.1 µM, first compound 0.0316 µM
[8] = second compound 0.1 µM, first compound 0.1 µM
[9] = second compound 0.1 µM, first compound 0.316 µM
[10] = second compound 0.1 µM, first compound 1 µM
[11] = second compound 0.1 µM, first compound 3.16 µM
[12] = second compound 0.1 µM, first compound 10 µM
[13] = second compound 0.316 µM, first compound 0.0316 µM
[14] = second compound 0.316 µM, first compound 0.1 µM
[15] = second compound 0.316 µM, first compound 0.316 µM
[16] = second compound 0.316 µM, first compound 1 µM
[17] = second compound 0.316 µM, first compound 3.16 µM
[18] = second compound 0.316 µM, first compound 10 µM
[19] = second compound 1 µM, first compound 0.0316 µM
[20] = second compound 1 µM, first compound 0.1 µM
[21] = second compound 1 µM, first compound 0.316 µM
[22] = second compound 1 µM, first compound 1 µM
[23] = second compound 1 µM, first compound 3.16 µM
[24] = second compound 1 µM, first compound 10 µM
[25] = second compound 3.16 µM, first compound 0.0316 µM
[26] = second compound 3.16 µM, first compound 0.1 µM
[27] = second compound 3.16 µM, first compound 0.316 µM
[28] = second compound 3.16 µM, first compound 1 µM
[29] = second compound 3.16 µM, first compound 3.16 µM
[30] = second compound 3.16 µM, first compound 10 µM
[31] = second compound 10 µM, first compound 0.0316 µM
[32] = second compound 10 µM, first compound 0.1 µM
[33] = second compound 10 µM, first compound 0.316 µM
[34] = second compound 10 µM, first compound 1 µM
[35] = second compound 10 µM, first compound 3.16 µM
[36] = second compound 10 µM, first compound 10 µM
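Further: spheroids exposed to compounds for 7 days before readout.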

## CC1COCCN1c1cc(C2(O)CC3CCC(C2)O3)c2cnn(-c3ccn[nH]3)c2n1 (stereo unspecified) + CN(C)c1ccc(Nc2c3ccc(NC(=O)CCN4CCCC4)cc3nc3cc(NC(=O)CCN4CCCC4)ccc23)cc1
Second compound 0.0316 µM
  IC50: 599 nM
Second compound 0.1 µM
  IC50: 644 nM
Second compound 0.316 µM
  IC50: 599 nM
Second compound 1 µM
  IC50: 348 nM
Second compound 3.16 µM
  IC50: 296 nM
Second compound 10 µM
  IC50: 189 nM
[1]
  viability, T/C: 96.5%
[2]
  viability, T/C: 79.1%
[3]
  viability, T/C: 59.8%
[4]
  viability, T/C: 40.5%
[5]
  viability, T/C: 32%
[6]
  viability, T/C: 20.4%
[7]
  viability, T/C: 105%
[8]
  viability, T/C: 80.3%
[9]
  viability, T/C: 58.8%
[10]
  viability, T/C: 43.3%
[11]
  viability, T/C: 33.9%
[12]
  viability, T/C: 20%
[13]
  viability, T/C: 96.3%
[14]
  viability, T/C: 75.4%
[15]
  viability, T/C: 53.2%
[16]
  viability, T/C: 45.8%
[17]
  viability, T/C: 33.4%
[18]
  viability, T/C: 19%
[19]
  viability, T/C: 83%
[20]
  viability, T/C: 63%
[21]
  viability, T/C: 53%
[22]
  viability, T/C: 36%
[23]
  viability, T/C: 31.4%
[24]
  viability, T/C: 19.1%
[25]
  viability, T/C: 87.9%
[26]
  viability, T/C: 68.8%
[27]
  viability, T/C: 46.7%
[28]
  viability, T/C: 34.7%
[29]
  viability, T/C: 26.9%
[30]
  viability, T/C: 16.5%
[31]
  viability, T/C: 74.7%
[32]
  viability, T/C: 56.1%
[33]
  viability, T/C: 45.8%
[34]
  viability, T/C: 29.7%
[35]
  viability, T/C: 25.5%
[36]
  viability, T/C: 16%

## Cc1[nH]c2ccccc2c1CCNCc1ccc(/C=C/C(=O)NO)cc1 + Cc1[nH]c2ccc(F)cc2c1-c1nc2c3cccnc3c3ncccc3c2[nH]1
Second compound 0.0316 µM
  IC50: 189 nM
Second compound 0.1 µM
  IC50: 215 nM
Second compound 0.316 µM
  IC50: 207 nM
Second compound 1 µM
  IC50: 176 nM
Second compound 3.16 µM
  IC50: < 0.999 nM
Second compound 10 µM
  IC50: < 0.999 nM
Second compound 0.0316 µM, first compound 0.000999 µM
  viability, T/C: 114%
Second compound 0.0316 µM, first compound 0.00316 µM
  viability, T/C: 91.3%
Second compound 0.0316 µM, first compound 0.00999 µM
  viability, T/C: 103%
[1]
  viability, T/C: 78.2%
Second compound 0.0316 µM, first compound 0.0999 µM
  viability, T/C: 74.5%
[3]
  viability, T/C: 33.8%
Second compound 0.1 µM, first compound 0.000999 µM
  viability, T/C: 103%
Second compound 0.1 µM, first compound 0.00316 µM
  viability, T/C: 94%
Second compound 0.1 µM, first compound 0.00999 µM
  viability, T/C: 102%
[7]
  viability, T/C: 90.6%
Second compound 0.1 µM, first compound 0.0999 µM
  viability, T/C: 73.1%
[9]
  viability, T/C: 38.5%
Second compound 0.316 µM, first compound 0.000999 µM
  viability, T/C: 90.2%
Second compound 0.316 µM, first compound 0.00316 µM
  viability, T/C: 92.2%
Second compound 0.316 µM, first compound 0.00999 µM
  viability, T/C: 109%
[13]
  viability, T/C: 92.7%
Second compound 0.316 µM, first compound 0.0999 µM
  viability, T/C: 79%
[15]
  viability, T/C: 33.1%
Second compound 1 µM, first compound 0.000999 µM
  viability, T/C: 97.9%
Second compound 1 µM, first compound 0.00316 µM
  viability, T/C: 80.3%
Second compound 1 µM, first compound 0.00999 µM
  viability, T/C: 78.4%
[19]
  viability, T/C: 91.2%
Second compound 1 µM, first compound 0.0999 µM
  viability, T/C: 70.4%
[21]
  viability, T/C: 29.2%
Second compound 3.16 µM, first compound 0.000999 µM
  viability, T/C: 46%
Second compound 3.16 µM, first compound 0.00316 µM
  viability, T/C: 37.7%
Second compound 3.16 µM, first compound 0.00999 µM
  viability, T/C: 41%
[25]
  viability, T/C: 49.3%
Second compound 3.16 µM, first compound 0.0999 µM
  viability, T/C: 52.5%
[27]
  viability, T/C: 38.7%
Second compound 10 µM, first compound 0.000999 µM
  viability, T/C: 46.3%
Second compound 10 µM, first compound 0.00316 µM
  viability, T/C: 24.8%
Second compound 10 µM, first compound 0.00999 µM
  viability, T/C: 38.9%
[31]
  viability, T/C: 35%
Second compound 10 µM, first compound 0.0999 µM
  viability, T/C: 41.6%
[33]
  viability, T/C: 32.1%

## C=CC(=O)N1CCN(c2nc(=O)n(-c3c(C)ccnc3C(C)C)c3nc(-c4c(O)cccc4F)c(F)cc23)C(C)C1 (stereo unspecified) + Cc1cnc(CNC(=O)c2c(=O)c3ccc(N4CCCN(C)CC4)nc3n3c2sc2ccccc23)cn1
Second compound 0.0316 µM
  IC50: > 10000 nM
Second compound 0.1 µM
  IC50: > 10000 nM
Second compound 0.316 µM
  IC50: > 10000 nM
Second compound 1 µM
  IC50: > 10000 nM
Second compound 3.16 µM
  IC50: > 10000 nM
Second compound 10 µM
  IC50: > 10000 nM
[1]
  viability, T/C: 106%
[2]
  viability, T/C: 75.7%
[3]
  viability, T/C: 96.2%
[4]
  viability, T/C: 106%
[5]
  viability, T/C: 110%
[6]
  viability, T/C: 97.2%
[7]
  viability, T/C: 95.3%
[8]
  viability, T/C: 79.4%
[9]
  viability, T/C: 90.2%
[10]
  viability, T/C: 89.9%
[11]
  viability, T/C: 109%
[12]
  viability, T/C: 81.2%
[13]
  viability, T/C: 81.2%
[14]
  viability, T/C: 91.3%
[15]
  viability, T/C: 87.7%
[16]
  viability, T/C: 104%
[17]
  viability, T/C: 90.7%
[18]
  viability, T/C: 76.3%
[19]
  viability, T/C: 73.7%
[20]
  viability, T/C: 74.1%
[21]
  viability, T/C: 69.9%
[22]
  viability, T/C: 81.4%
[23]
  viability, T/C: 82.9%
[24]
  viability, T/C: 71.5%
[25]
  viability, T/C: 61.8%
[26]
  viability, T/C: 60.8%
[27]
  viability, T/C: 62.5%
[28]
  viability, T/C: 66.8%
[29]
  viability, T/C: 76.9%
[30]
  viability, T/C: 55.3%
[31]
  viability, T/C: 56.6%
[32]
  viability, T/C: 55.3%
[33]
  viability, T/C: 58.6%
[34]
  viability, T/C: 70%
[35]
  viability, T/C: 64.5%
[36]
  viability, T/C: 49.9%
